The numbers were not newly measured in patent US8071770B2, “Spirohydantoin aryl CGRP receptor antagonists” (Merck Sharp & Dohme Corp., priority 2005, dated 2011), which cites them from elsewhere.

Series [1] has as its system facial blood flow. As to conditions: marmoset, electrical stimulation of the trigeminal ganglion (Doods et al. 2000).
Series [2] has as its system middle meningeal artery. As to conditions: rats, electrical stimulation of the dura mater, prior administration (Williamson et al. 1997).
In series [3] the test system is facial blood flow. As to conditions: rat, trigeminal ganglion stimulation (Escott et al. 1995).

Ends that are not written are not given here.

Take `NCCCC[C@H](NC(=O)[C@@H](Cc1cc(Br)c(O)c(Br)c1)NC(=O)N1CCC(N2Cc3ccccc3NC2=O)CC1)C(=O)N1CCN(c2ccncc2)CC1` [BIBN4096BS]: the “effect on increase in facial blood flow” value in series [1] is reported as “blocked”.

On to “CGRP (8-37): a fragment of CGRP that lacks seven N-terminal amino acid residues; a peptide CGRP antagonist (VTHRLAGLLSRSGGVVKNNFVPTNVGSKAF; ends and bridges not checked; UniProt P06881 90-119, looked up, fragment)”, for which, in series [2], the “effect on increase of middle meningeal artery diameter” value is recorded as “blocked”. Further, the “effect on increase of facial blood flow” value in series [3] is reported as “inhibited”.
